Test [1] deals with human norepinephrine transporter (Homo sapiens, UniProt P23975). Put plainly: Human norepinephrine (hNET) receptor binding, [125I]-RTI-55. The note with it: membranes of HEK-293 cells transfected with human norepinephrine transporter cDNA; 50 pM [125I]-RTI-55; IC50 converted by Cheng-Prusoff. The method, boiled down: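 Membranes from HEK-293 cells expressing human NET, incubated 90 min at room temperature with 50 pM [125I]-RTI-55 and compound (10^−5 to 10^−12 M) in Krebs-HEPES pH 7.4. Nonspecific binding defined with 10 μM desipramine; filter-bound counts gave IC50, converted to Ki by Cheng-Prusoff.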
Sequence of human norepinephrine transporter (P23975 whole entry): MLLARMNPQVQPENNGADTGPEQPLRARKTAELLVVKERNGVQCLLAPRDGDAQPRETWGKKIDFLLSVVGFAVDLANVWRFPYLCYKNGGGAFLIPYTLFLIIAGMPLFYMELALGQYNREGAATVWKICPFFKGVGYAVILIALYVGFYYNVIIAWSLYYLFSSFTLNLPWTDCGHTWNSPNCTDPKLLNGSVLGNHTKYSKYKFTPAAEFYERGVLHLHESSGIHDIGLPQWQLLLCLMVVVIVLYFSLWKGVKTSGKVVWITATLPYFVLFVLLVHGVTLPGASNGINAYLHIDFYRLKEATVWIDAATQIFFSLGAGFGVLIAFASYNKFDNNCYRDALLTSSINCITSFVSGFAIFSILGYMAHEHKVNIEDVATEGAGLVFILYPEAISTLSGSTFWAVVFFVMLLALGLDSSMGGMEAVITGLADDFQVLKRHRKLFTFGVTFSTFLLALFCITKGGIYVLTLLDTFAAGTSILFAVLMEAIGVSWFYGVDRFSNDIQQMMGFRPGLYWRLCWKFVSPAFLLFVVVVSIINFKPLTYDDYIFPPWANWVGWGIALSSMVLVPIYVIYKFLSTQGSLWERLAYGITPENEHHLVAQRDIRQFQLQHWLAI

For test [2], the target named is human serotonin transporter (Homo sapiens, UniProt P31645). Nature of the test: Human serotonin (hSERT) receptor binding, [125I]-RTI-55. The note with it: membranes of HEK-293 cells transfected with human serotonin transporter cDNA, IC50 converted by Cheng-Prusoff. The method, boiled down:
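Membranes from HEK-293 cells expressing human SERT were incubated 90 min at room temperature in Krebs-HEPES buffer pH 7.4 with […] [125I]-RTI-55 and compound (10^−5 to 10^−12 M), in duplicate. Nonspecific binding defined with 10 μM citalopram; IC50 converted to Ki by Cheng-Prusoff.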

In test [3] the test system is capsaicin-induced mechanical allodynia. Nature of the test: Capsaicin-induced mechanical allodynia rat model. The test is classed as in vivo. Particulars: sc, male Sprague-Dawley rats, single subcutaneous 10 mg/kg dose on Day 7, measurement 1 hour post dose, mean of eight animals. The procedure:
On Day 0, male Sprague-Dawley rats (about 150 g each) in the dark cycle were placed in suspended wire-bottom cages and allowed to acclimate for 0.5 hour in a darkened, quiet room. The Day 0 paw withdrawal threshold (PWT) was determined on the left hind paw by Von Frey hair assessment using the Dixon up and down method. After assessment, the plantar muscle of the right hind paw was injected with 100 μL of capsaicin (0.25% weight/volume (w/v) in 10% ethanol, 10% Tween 80, in sterile saline).
On Day 6, the PWT of the left hind paw (contralateral from the injected paw) was determined for each animal. Animals on Day 6 with PWT≦11.7 g were considered allodynic responders and were regrouped so that the animals in each cage had similar mean PWT values.
On Day 7, the responders were dosed subcutaneously with 10 mg of the test compound per kg of rat body weight in vehicle, or were administered vehicle (10 mL/kg) alone. The vehicle was phosphate buffered saline containing 2% CREMOPHOR® EL (BASF). The contralateral (i.e., left hind paw) PWT values were determined at 1 hour after the single dose, with the investigator blinded to the dosing scheme. For each animal, the Day 6 PWT value was subtracted from the Day 7, 1 hour PWT value for the 10 mg/kg doses of test compound to give a delta PWT value (Delta PWT (drug)), which represents the change in PWT due to the 1 hour drug treatment. In the case of vehicle-alone treated animals, the Day 6 PWT value was subtracted from the Day 7, 1 hour PWT for the 10 mL/kg doses of vehicle and the values averaged (mean Delta PWT (vehicle)). In addition, the Day 6 PWT was subtracted from the Day 0 PWT to give the baseline level (Baseline) of allodynia present in each animal. Percent inhibition of allodynia of each animal, normalized for vehicle controls, was determined using the following formula: […]

A word on the Ki: it is the dissociation constant of the complex between target and ligand, obtained from inhibition or displacement. A higher Ki goes with a looser hold on the target. What is called inhibition in vivo is how much of the control response was suppressed. Read a low inhibition in vivo as little suppression.

Sequence of human serotonin transporter (P31645 whole entry): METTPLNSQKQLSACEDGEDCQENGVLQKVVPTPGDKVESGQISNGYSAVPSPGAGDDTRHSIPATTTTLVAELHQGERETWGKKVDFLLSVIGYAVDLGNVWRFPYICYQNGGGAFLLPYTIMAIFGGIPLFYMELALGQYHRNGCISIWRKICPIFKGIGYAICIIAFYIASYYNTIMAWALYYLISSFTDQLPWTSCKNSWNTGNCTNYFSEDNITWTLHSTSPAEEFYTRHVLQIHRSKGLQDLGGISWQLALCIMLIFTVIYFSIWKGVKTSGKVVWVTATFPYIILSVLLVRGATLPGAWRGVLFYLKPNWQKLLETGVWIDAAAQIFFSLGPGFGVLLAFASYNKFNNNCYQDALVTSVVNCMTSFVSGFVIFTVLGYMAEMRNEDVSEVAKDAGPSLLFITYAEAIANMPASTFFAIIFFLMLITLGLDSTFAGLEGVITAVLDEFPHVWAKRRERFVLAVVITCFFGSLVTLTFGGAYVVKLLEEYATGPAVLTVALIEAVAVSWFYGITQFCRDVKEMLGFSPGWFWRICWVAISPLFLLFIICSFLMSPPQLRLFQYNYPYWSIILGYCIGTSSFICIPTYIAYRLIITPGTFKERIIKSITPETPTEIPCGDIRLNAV

As to `Cc1ccc(Oc2nc(C)ccc2OC[C@H]2CCCNC2)c(Cl)c1` [Example 14, (S)-2-(2-chloro-4-methyl-phenoxy)-6-methyl-3-(piperidin-3-ylmethoxy)-pyridine fumaric acid], the Ki was 2.8 nM in test [1] and 40 nM in test [2]. In test [3], this compound had an inhibition in vivo at 10 mg/kg of 48%.
On the same counts, the results for `CCc1ccc(Oc2nc(C)ccc2OC[C@H]2CCCNC2)c(OC)c1` [Example 11, (S)-2-(4-ethyl-2-methoxy-phenoxy)-6-methyl-3-(piperidin-3-ylmethoxy)-pyridine fumaric acid] are 18 nM, 180 nM and 9%.
On the same counts, the results for `COc1cc(C)ccc1Oc1nc(C)ccc1OC[C@H]1CCCNC1` [Example 4, (S)-2-(2-methoxy-4-methyl-phenoxy)-6-methyl-3-(piperidin-3-ylmethoxy)-pyridine fumaric acid] are 7.4 nM, 170 nM and 43%.
For `Cc1ccc(OC[C@H]2CCCNC2)c(Oc2ccc(F)cc2F)n1` [Example 25, (S)-2-(2,4-difluoro-phenoxy)-6-methyl-3-(piperidin-3-ylmethoxy)-pyridine fumaric acid], in that order: 3.3 nM, 72 nM and 77%.
As for `Cc1ccc(OC[C@H]2CCCNC2)c(Oc2ccc(Cl)cc2F)n1` [Example 23, (S)-2-(4-chloro-2-fluoro-phenoxy)-6-methyl-3-(piperidin-3-ylmethoxy)-pyridine fumaric acid], the Ki is 5.3 nM in test [1] and 28 nM in test [2]. For the same compound, in test [3], the inhibition in vivo at 10 mg/kg came to 65%.

(Values after patent US20100120858A1, “Piperidine Derivatives” (Pfizer Inc., priority 2006, published 2010).)
